Consider three molecules from ChEMBL document CHEMBL1201862, “PubChem BioAssay data set” (2004).

Test systems include SF-295; OVCAR-8; CAKI-1; HCC 2998; RXF 393; A549; NCI-H226; HT-29; HOP-92; Malme-3M; OVCAR-3; HL-60; DMS-273; TK-10; SK-MEL-5; DMS-114; KM12; NCI/ADR-RES; MCF7; BT-549.
Holding throughout (experiment): NCI anticancer screen, dose series, 48 h

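Results reflect a 48-hour exposure of cells in 96-well plates to compound at five concentrations. GI50: concentration for 50% inhibition of growth.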 Calls of active or inactive are those of the source. Rule as the data show it: active = GI50 up to about 1.1 µM and inactive = higher. A value given as a limit tells only on which side of the number the result lay.

`Cc1cccc(C)c1NC(=O)C(=O)CC(=O)CO`: the GI50 with SF-295, with OVCAR-8, in the assay on CAKI-1, in the assay on HCC 2998, with RXF 393 and in the assay on A549 was > 100 µM (inactive) in each case. Also, the GI50 in the assay on NCI-H226, with HT-29, in the assay on HOP-92, in the assay on Malme-3M, in the assay on OVCAR-3 and with HL-60 was > 100 µM (inactive) throughout. Also, the GI50 in the assay on DMS-273, in the assay with TK-10, in the assay with SK-MEL-5, with DMS-114 and in the assay on KM12 was > 100 µM (inactive) throughout.

As for `O=C(O)CN(CC(=O)O)Cc1cc(C#Cc2ccc(C#Cc3ccccc3)cc2)cc(CN(CC(=O)O)CC(=O)O)n1`, the GI50 with SF-295 is 27.4 µM (inactive); in the assay with OVCAR-8 it was 11.5 µM (inactive); with CAKI-1, 10.6 µM (inactive); with HCC 2998, 4.63 µM (inactive); with NCI/ADR-RES it was 12.7 µM (inactive); with RXF 393 it was 15.7 µM (inactive). In addition, the GI50 in the assay with A549 was 29.1 µM (inactive); with NCI-H226 it was 12.2 µM (inactive); in the assay with HT-29, 12.9 µM (inactive); with HOP-92, 22.9 µM (inactive); in the assay on MCF7 it was 16.5 µM (inactive); in the assay on Malme-3M, 31 µM (inactive). Besides, the GI50 with OVCAR-3 is 9.02 µM (inactive); in the assay on HL-60, 12.9 µM (inactive); in the assay with DMS-273 it was 7.66 µM (inactive); with BT-549, 12.3 µM (inactive); in the assay with TK-10, 17.5 µM (inactive); in the assay with SK-MEL-5 it was 27.3 µM (inactive). Also, the figures for the GI50 in the assay with DMS-114 and with KM12 were 13.8 µM (inactive) and 16.8 µM (inactive), respectively.

In the case of `COc1cc(/C=C\c2ccc(SC)cc2)cc(OC)c1OC`, the GI50 with SF-295 is 0.0119 µM (active); in the assay with OVCAR-8 it was 0.0231 µM (active); with CAKI-1, 0.244 µM (active); with HCC 2998 it was < 0.01 µM (active); in the assay with NCI/ADR-RES, 0.0395 µM (active); in the assay with RXF 393, 0.0117 µM (active). Besides, the GI50 in the assay on A549 was 0.0215 µM (active); in the assay on NCI-H226, 0.979 µM (active); in the assay on HT-29, < 0.0137 µM (active); in the assay with HOP-92 it was 0.498 µM (active); with MCF7 it was 0.201 µM (active); in the assay with Malme-3M, 0.381 µM (active). Further, the GI50 in the assay on OVCAR-3 is 0.0128 µM (active); in the assay on HL-60, < 0.0123 µM (active); in the assay on DMS-273, 0.0258 µM (active); in the assay with BT-549 it was < 0.01 µM (active); in the assay with TK-10, 23.7 µM (inactive); in the assay with SK-MEL-5, < 0.0152 µM (active). Also, the GI50 in the assay on DMS-114 is < 0.0202 µM (active); in the assay with KM12 it was 0.0241 µM (active).
